Laboratory results reported in patent publication US7943748B2, “Glucitol derivative, prodrug thereof and salt thereof, and therapeutic agent containing the same for diabetes” (Chugai Seiyaku Kabushiki Kaisha, priority 2004, dated 2011).
pIC50: −log10 of the molar value.

Legend:
[1] = Test for determining blood half-life in rat; type: in vivo; details: iv; SD male rat, intravenously administered, dosage 10 mg/kg, plasma, LC-MS/MS, non-compartmental analysis, half-life in the final layer
Procedure: Test for Determining Blood Half-Life in Rat
A test compound was intravenously administered to a SD male rat (8-weeks old, Japan SLC) and the blood was collected 2 minutes, 5 minutes, 15 minutes, 30 minutes, 1 hour, 2 hours, 4 hours, 6 hours and 8 hours after administration, respectively. The obtained blood was centrifuged to obtain plasma. The plasma sample (0.01 mL) and water (0.4 mL) were added to a tube added with an internal standard substance of phenyloin (250 ng), and diethyl ether (2 mL) was added thereto and the obtained solution was stirred for five minutes, and then centrifuged for 10 minutes and an organic layer was recovered and subjected to nitrogen dryness, and a mobile phase was added to the obtained solid to dissolve it and the resulting solution was taken as a sample for determination.
The sample for determination was injected into LC-MS/MS and determined under the following conditions. • Column: ODS (2.0×150 mm) • Mobile Phase Acetonitrile/10 mM ammonium acetate=4/6 (v/v) • Flow Rate: 0.2 mL/min • Amount of Sample Injected: 10 μL • Mass Analysis: ESI (+)
The plasma concentration obtained by the LC-MS/MS method was subjected to non-compartmental analysis with the use of the WinNonlin standard made by Pharsight Corporation to calculate pharmacokinetic parameters.

[2] = molecular target: T1, human SGLT2 (Homo sapiens, UniProt P31639); assay: Inhibition of methyl-α-D-glucopyranoside intake in human SGLT2 stable expression CHO cells; type: cell-based; details: methyl-α-D-(U-14C)glucopyranoside intake, 37° C., 45 minutes
T1 construct: expressed in transfected cells; host or cells: CHO-K1
T1 sequence (P31639 1-672): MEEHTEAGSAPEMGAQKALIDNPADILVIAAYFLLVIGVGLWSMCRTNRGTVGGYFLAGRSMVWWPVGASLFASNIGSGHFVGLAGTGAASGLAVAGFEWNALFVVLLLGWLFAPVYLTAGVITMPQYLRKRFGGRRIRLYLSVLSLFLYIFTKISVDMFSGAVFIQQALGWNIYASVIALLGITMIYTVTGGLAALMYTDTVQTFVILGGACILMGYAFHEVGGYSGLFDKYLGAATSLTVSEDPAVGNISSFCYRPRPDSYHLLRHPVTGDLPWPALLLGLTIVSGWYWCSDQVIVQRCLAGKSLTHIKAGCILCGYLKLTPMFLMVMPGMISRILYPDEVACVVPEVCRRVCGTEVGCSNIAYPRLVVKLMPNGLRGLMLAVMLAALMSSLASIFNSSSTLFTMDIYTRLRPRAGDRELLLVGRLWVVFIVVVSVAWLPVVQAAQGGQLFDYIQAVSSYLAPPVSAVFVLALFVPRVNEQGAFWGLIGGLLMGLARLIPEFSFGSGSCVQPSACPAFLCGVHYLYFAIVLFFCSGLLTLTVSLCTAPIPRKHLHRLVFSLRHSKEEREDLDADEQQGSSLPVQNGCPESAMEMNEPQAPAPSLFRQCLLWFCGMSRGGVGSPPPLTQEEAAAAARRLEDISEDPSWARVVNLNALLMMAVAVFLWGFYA
Procedure: Test for Confirming Action of Inhibiting Human Na^+-Glucose Co-Transporters (SGLT1 and SGLT2)
(2) Preparation of Human SGLT2 Expression Vector
PCR was performed by KOD+DNA polymerase by taking a human kidney-derived cDNA library (a product of Clontech) as a template with the use of a synthesized DNA primer to amplify human SGLT2 cDNA. […] From the proliferated E. coli, a plasmid was purified according to the usual way. By taking this plasmid as a template, PCR was performed by KOD+DNA polymerase with the use of a synthetic DNA primer into which restriction enzyme recognition sites had been introduced to amplify human SGLT2 cDNA (a fragment added with Xho I recognition site on the upstream side and a Hind III recognition site on the downstream side). This amplified fragment was subjected to Xho I and Hind III digestion to connect the digested fragments to their recognition sites of the expression vector pcDNA 3.1(−) with the use of the Rapid DNA Ligation kit. The connected expression vector was introduced into E. coli competent cells (DH5α) and proliferated in an ampicillin-containing LB medium to obtain a human SGLT2 expression vector according to the usual way.
(3) Preparation of Human SGLT1 Stable Expression Cell and Human SGLT2 Stable Expression Cell […]

| half-life [1] [h] | pIC50 [2] | Structure (SMILES) |
| --- | --- | --- |
| 8.21 | 7.74 | OC[C@H]1O[C@@H](c2cc(Cc3cc4ccccc4s3)cc3ccccc23)[C@H](O)[C@@H](O)[C@@H]1O [Example 1, (2S,3R,4R,5S,6R)-2-[3-(Benzo[b]thiophen-2-ylmethyl)-naphthalen-1-yl]-6-hydroxymethyl-tetrahydropyran-3,4,5-triol] |
|  | 7.74 | Cc1ccc(Cc2cc([C@@H]3O[C@H](CO)[C@@H](O)[C@H](O)[C@H]3O)c3ccccc3c2)s1 [Example 8, (2R,3S,4R,5R,6S)-2-hydroxymethyl-6-[3-(5-methylthiophen-2-ylmethyl)naphthalen-1-yl]tetrahydropyran-3,4,5-triol] |
